Tested on: pulmonary adenocarcinoma
Test: clinical course under other anticancer drugs in the lung cancer cases
Format: in vivo, human
Source text: Each case is disclosed in detail below.

SMILES | side effects (case 2, oral dosing from September to May 2014, no ketogenic diet) | adverse event due to erlotinib (case 4, August 2014, on the head) | primary tumor (primary lesion) under erlotinib administration (one patient who left the ketogenic diet after the 3 month evaluation)
COc1cc2ncnc(Nc3ccc(F)c(Cl)c3)c2cc1OCCCN1CCOCC1 [Iressa, gefitinib] | not found |  | 
C#Cc1cccc(Nc2ncnc3cc(OCCOC)c(OCCOC)cc23)c1 [erlotinib] |  | eczema | contraction

Source: patent publication US20180214410A1, “Development of Dietary Therapy in Cancer” (Osaka University, priority 2015, published 2018)
